# According to US8778643B2, “Methods for increasing lipid levels and producing triacylglycerols in algae” (priority 2012, dated 2014):
# “And” between values parts separate entries of the source, which are not always exact repeats. Equal entries are not always repeated. “Also recorded” adds a separate entry of the source. Where two headings read alike, the source gives them in different places.
# What was measured:
# Nannochloropsis oculata [1] = details: for increase in lipid levels (Nile Red): lower concentrations, >0.040 nM
# Experimental: (§1) Stock cultures were aerated by stirring with bubbling air (homemade manifold with Petco air pump, 2-4% CO2) or by orbital shaking (Thermo Scientific MAXQ 2000) at a constant speed of 150 rpm at 22±3° C. with a 16:8 hour light/dark cycle. Stocks were kept at stationary phase for use. Algae were prepared as dictated by culture center.
# (§2) Compounds were selected based on reported biological activity in non-microalgae organisms. To ensure that compounds retained their quality, they were stored under advised conditions after purchasing from the manufacturer. Solutions of all assay compounds were prepared as 10 mM stock solutions by dissolving in DMSO in 2-dram amber vials and then stored in darkness −20° C. 96-well PCR plates were used to create a stock plate layout that was then transferred to the algae microplates. A plate map was used to distribute each compound to a well based on molecule name, collection number, and CAS number. For 20 μM and 200 nM assay plates, 10 mM compound stock in DMSO was diluted into plate maps of 5 mM and 50 μM assay stocks, respectively.
# (§3) All materials for assay experiments were autoclaved before each use to maintain axenic algae cultures. Algae species were checked for homogeneity using a TS-100 light microscope (Nikon, Japan). […] Diluted stock solutions were made immediately prior to use for consistency and optimal plate growth. Cell density was measured on a Thermo Scientific Genesys 10S Vis Spectrophotometer (ThermoFisher, San Jose), using a 1 mL cuvette at 680 nm.
# (§4) Plates were originally run in triplicate, before replicates were increased to quadruplicate, along with a separate control plate to compare growth. Due to extensive evaporation in exterior wells over time, our unique algae plate layout was designed to use the 60 interior wells out of 96 wells for the experiment. The 36 outer wells were filled with Millipore water and media to prevent evaporation and edge effects in the inner algae wells, as well as serve as blanks. The 60 wells with algae contained a total volume of 251 μL (100 μL of media+DMSO compound stock +150 μL dilute algae stock). For 20 μM and 200 nM assay plates, 10 mM compound stock in DMSO is diluted into plate maps of 5 mM and 50 μM assay stocks, respectively. […] Plates were parafilmed during growth to limit the amount of evaporation that can occur. Plates were numbered, and numerically ordered to ensure they got the same shaker space.
# (§5) The shakers are kept at a constant shaking of 150 rpm. Ambient temperature is 22±3° C.
# Nannochloris sp. [2] = test: Microplate assay: growth (absorbance 680 nm) and intracellular lipids (Nile Red fluorescence); format: cell-based
# Experimental: as §1, §2, §3, §4, §5
# Nannochloris sp. [3] = test: 500 mL batch culture: growth, dry weight and lipid extract (gravimetric); format: cell-based; details: for Lipid productivity / Change in Lipids / Specific Growth Rate: Nannochloris sp., 500 mL culture, 4 nM; for Change in Lipids: gravimetric, relative to averaged control without DMSO; for Specific Growth Rate: mid-exponential growth phase
# Experimental: (§6) Batch cultures were grown in 500 mL Pyrex media bottles with stirring and air bubbling (homemade manifold with Petco air pump, 2-4% CO2). Incoming air was sterile filtered by Polyvent 4 disposable filters (Whatman, Kent, UK). […] To minimize bacterial contamination, all equipment and materials were autoclaved and media was added to flask in a Purifier Vertical Clean bench (Labconco, Kansas City, Mo.). […] The amount of DMSO is standardized for all experiments to 0.4%.
# (§7) For all compound cultures, the 2 mL DMSO stock solution was added to media (without algae) first and mixed well. Control cultures were grown without DMSO. DMSO controls consisted of 0.04-1.0% DMSO. After the addition of algae and media, the container was plugged with a bug stopper vented closure cap and mixed thoroughly. Absorbance is measured immediately for Day 0 analysis. Afterward, absorbance was measured every 1-2 days with a cuvette (1 mL volume) on the Thermo Scientific Genesys 10S V is Spectrophotometer (ThermoFisher, San Jose) at 680 nm.
# (§8) Batch cultures were also repeated in triplicate and compared to a control culture grown at the same time. Algae were harvested and lipids were extracted for gravimetric analysis.
# (§9) The nonpolar algal extracts were harvested from 500 mL cultures when indicated on growth curves, a minimum of 3 days into stationary phase.
# (§10) Cell density was monitored by measuring absorbance at 680 nm every 1-2 days.
# (§11) 500-mL cultures were harvested 6 days into stationary phase based on absorbance values. Cells were concentrated by centrifugation and lyophilization to remove water. Nonpolar lipids were extracted by sonication and solvent (chloroform-methanol and PBS buffer). […] Changes in lipid levels for batch cultures were determined by crude lipid extract mass.
# [4] = test system: Phaeodactylum tricornutum; test: Microplate assay: growth (absorbance 680 nm) and intracellular lipids (Nile Red fluorescence); format: cell-based; details: for increase in lipid levels: higher concentrations
# [5] = test system: Phaeodactylum tricornutum; test: 500 mL batch culture: growth, dry weight and lipid extract (gravimetric); format: cell-based
# Experimental: as §6, §7, §8, §9, §10, §11
# Nannochloropsis salina [6] = test system: Nannochloropsis salina
# Experimental: as §1, §2, §3, §4, §5
# Nannochloropsis oculata [7] = test: Lipid composition of batch culture extracts (fatty acid saturation / PUFA by 1H NMR, MALDI-TOF, GC/MS); format: cell-based; details: for SFAs (% of total lipids) / n3 PUFAs (% of UFAs) / All other PUFAs and MUFAs (% of UFAs) / UFAs (% of total lipids): 1H NMR; for SFAs (% of total lipids): Normal 24; for n3 PUFAs (% of UFAs): Normal 37; for All other PUFAs and MUFAs (% of UFAs): Normal 63; for UFAs (% of total lipids): Normal 76; for SFAs (%) / MUFAs (%) / n3 PUFAs (%) / PUFAs (%): N. oculata, n=1; for SFAs (%): Normal 0 ± 1; for MUFAs (%): Normal 4 ± 7; for n3 PUFAs (%): Normal 28 ± 4; for PUFAs (%): Normal 96 ± 7
# Experimental: The nonpolar algal extracts were harvested from 500 mL cultures when indicated on growth curves, a minimum of 3 days into stationary phase. […] Cells were crushed and nonpolar lipids were extracted by sonication (Fisher Scientific Model 120 Sonic Dismembrator, ThermoFisher, San Jose) for 1 minute in chloroform, followed by chloroform-methanol extractions, washed with PBS butter, and dried under vacuum.^55-60 The crude non-polar algae extracts were then analyzed by ^1H Nuclear Magnetic Resonance (^1H NMR) for verification of TAG presence and examination of the purity of the extract (determination of level of chlorophyll). The extracts were then divided for analysis; one part for transesterification, one part to save as crude extract, and one part for SPE separation and MALDI-TOF analysis of TAGs.
# Triacylglycerols can be isolated by solid-phase extraction (SPE) with 500 mg silica SPE cartridges (Silicycle, Quebec). The nonpolar extract is dissolved in 300 μL hexanes, and loaded on the SPE cartridge primed with hexanes. A mixture of 80:20:1 hexanes/diethyl ether/acetic acid was used as mobile phase to elute the TAGs.^61 SPE removes any chlorophyll in this process. Residual polar fraction containing polar lipids and chlorophyll was obtained by elution with acetone. All extracts and TAG fractions were dried under vacuum and stored under argon in amber vials at −20° C. before spectroscopic analysis. After SPE, the purified TAG fraction was reanalyzed with ^1H NMR spectroscopy for TAG characterization.
# The TOF was in Reflectron mode with laser intensity from 5500-6500 Volts. Each acquisition consisted of 2500 shots with a focus mass of 900 Da, and a scan range of m/z 400-1100. Multiple acquisition scans were performed at different laser intensities to determine optimal conditions. Samples for the MALDI-TOF were diluted to 5 mg/mL in hexane, and spotted in the fast-evaporation method in a 1:2 ratio with DHB (2,5-dihydroxybenzoic acid) as the matrix. Re-spotting with methanol allowed for the matrix and sample to mix without hexane interactions, and allowed for better crystal formation. All samples on MALDI plate were allowed to dry before MS analysis. Data was normalized to base peak in all cases.
# After the initial weight was recorded, the nonpolar extract set aside for transesterification was dissolved in 3.0 mL of 0.6 M sulfuric acid in methanol and stirred vigorously at 60° C. for 45 minutes.
# Initial GC/MS temperature was 50° C. and end was 200° C. over at a one hour period for optimal FAME peak separation.
# Peak assignment of fatty acids and their derivatives are based on NMR spectroscopic studies of previously reported algal lipid extracts^9 and comparison to standards such as olive oil (ACROS) and fatty acid mixtures.
# We developed a quick and robust method to screen if the screened compound effect fatty acid saturation levels using ^1H NMR spectroscopy. The amount of saturated fatty acids (SFA), monounsaturated fatty acids (MUFAs), and polyunsaturated fatty acids (PUFAs) was determined using peak area ratios.
# Calculated based on ^1H NMR integral ratios for the proton signals for the methyl group of PUFA components vs. the methyl groups of monounsaturated and saturated components.
# microalgae = test: Microplate assay (growth, Nile Red lipids), algae strain not stated
# Nannochloropsis oculata [8] = test: 500 mL batch culture: growth, dry weight and lipid extract (gravimetric); format: cell-based
# Experimental: as §6, §7, §8, §9, §10, §11
# Nannochloropsis salina [9] = test: as above; format: cell-based
# [10] = 40 μM, initial microplate screen, relative to control
# [11] = 200 nM, initial microplate screen, relative to control
# [12] = DMSO at 0.4% v/v, batch culture
# [13] = N. oculata, DMSO average, harvested day 6 of stationary phase, n=3
# [14] = 0.4% by volume, 500 mL culture, day 6 in stationary phase
compound,measurement,setting,value
"Oc1ccc(-c2nc(-c3ccncc3)c(-c3ccc(F)cc3)[nH]2)cc1 [SB202190, 4-(4-Flurophenyl)-2-(4-hydroxyphenyl)-5-(4-pyridyl)-1H-imidazole]",% Lipid increase based on Nile red fluorescence intensity,"Nannochloropsis oculata [1]; N. oculata, 400 fM, added at exponential phase, t=day 7",95%
same,% Increase based on Nile Red Fluorescence Intensity,"Nannochloropsis oculata [1]; N. oculata, 400 fM, added during exponential phase",95%
same,increase in lipid levels (Nile Red),Nannochloropsis oculata [1]; compound added at t=day 0,45%
same,increase in lipid levels (Nile Red),Nannochloropsis oculata [1]; compound added in exponential growth phase (Day 7),95%
same,Nile Red percent increase,"Nannochloris sp. [2]; 123-457 pM, dose-response microplate screen",103-175%
same,Nile Red Fluorescence % Increase,"Nannochloris sp. [2]; Nannochloris sp., compounds tested at 20 μM, initial screening, p<0.05",54.6% and 28.8%
same,Lipid productivity,Nannochloris sp. [3],3.0 ± 1.7 mgL^−1day^−1
same,Lipid productivity,Nannochloris sp. [3]; exponential addition,4.0 ± 1.6 mgL^−1day^−1
same,Change in Lipids,Nannochloris sp. [3]; exponential addition,38%
same,Specific Growth Rate,Nannochloris sp. [3]; exponential addition,0.15 ± 0.08 day⁻¹
same,Change in Lipids,Nannochloris sp. [3],3%
same,Specific Growth Rate,Nannochloris sp. [3],0.17 ± 0.02 day⁻¹
same,increase in lipid levels,"Nannochloris sp. [3]; batch culture, added during the exponential growth phase",38%
same,Absorbance (percent increase),[4]; [10],+4.26%
same,Nile Red percent increase,[4]; [10],112.4%
same,increase in lipid levels,[4]; DMSO as delivery agent,26%
same,Nile Red Fluorescence % Increase,"[4]; P. tricornutum, compounds tested at 40 μM, initial screening, p<0.05",115.0%
same,increase in lipid levels,[4]; water as delivery agent,99%
"Cc1cc2c(C(C)C)c(O)c(O)c(C=O)c2c(O)c1-c1c(C)cc2c(C(C)C)c(O)c(O)c(C=O)c2c1O [Gossypol, 2,2′-bis-(Formyl-1,6,7-trihydroxy-5-isopropyl-3-methylnaphthalene)]",Lipid productivity,"[5]; P. tricornutum, 500 mL culture, 76 pM",5.6 ± 1.9 mgL^−1day^−1
same,Lipid content,"[5]; P. tricornutum, 500 mL culture, 76 pM, dried lipid extract per dry biomass",24.4 ± 2.7 % w/w
same,Change in Lipids,"[5]; P. tricornutum, 500 mL culture, 76 pM, gravimetric, relative to averaged control without DMSO",27%
same,Specific Growth Rate,"[5]; P. tricornutum, 500 mL culture, 76 pM, mid-exponential growth phase",0.21 ± 0.05 day⁻¹
same,% increase (lipid production),Nannochloropsis salina [6]; 0.0757-6.13 nM (H2O),1-27(H2O) %
same,% increase (lipid production),"Nannochloropsis salina [6]; 0.0757-55.2 nM, DMSO delivery",8-81%
same,% Lipid increase based on Nile red fluorescence intensity,"Nannochloropsis salina [6]; N. salina, 6.13 nM, DMSO, t=day 0",103%
same,% Increase based on Nile Red Fluorescence Intensity,"Nannochloropsis salina [6]; N. salina, 6.13 nM, DMSO delivery, added t=day 0",103%
same,optimal effective concentration (lipid production),Nannochloropsis salina [6]; lipoxygenase inhibitor microplate screen,6 nM
same,increase in lipid production,"[4]; 0.0757 nM, DMSO delivery",> 250%
same,Nile Red percent increase,"[4]; 0.0757 nM, dose-response microplate screen",111%
same,% increase (lipid production),[4]; 0.0252-165.6 nM,5-283%
same,optimal effective concentration (lipid production),[4]; DMSO delivery,0.0757 nM
"CC1CC(C)C(=O)C(C(O)CC2CC(=O)NC(=O)C2)C1 (centres unmarked) [Cycloheximide, 3-[2-(3,5-Dimethyl-2-oxocyclohexyl)-2-hydroxyethyl]glutarimide]",Nile Red percent increase,"Nannochloropsis oculata [1]; 4.6-41.2 nM, dose-response microplate screen",87-96%
same,Nile Red Fluorescence % Increase,"Nannochloropsis oculata [1]; N. oculata, compounds tested at 200 nM, initial screening, p<0.05",137.9%
same,Absorbance (percent increase),Nannochloris sp. [2]; [11],−12.4%
same,Nile Red percent increase,Nannochloris sp. [2]; [11],178.1%
same,% Lipid increase based on Nile red fluorescence intensity,"[4]; P. tricornutum, 400 nM, added at exponential phase, t=day 7",408%
same,% Increase based on Nile Red Fluorescence Intensity,"[4]; P. tricornutum, 400 nM, added during exponential phase",408%
same,SFAs (% of total lipids),Nannochloropsis oculata [7]; 40 nM (exponential),39 % of total lipids
same,n3 PUFAs (% of UFAs),Nannochloropsis oculata [7]; 40 nM (exponential),33 % of UFAs
same,All other PUFAs and MUFAs (% of UFAs),Nannochloropsis oculata [7]; 40 nM (exponential),67 % of UFAs
same,UFAs (% of total lipids),Nannochloropsis oculata [7]; 40 nM (exponential),61 % of total lipids
same,effect on lipid levels,"microalgae; added in the initial phase, <1 μM, greater than 1 μM",minimal increase in lipid levels
same,effect on cell growth,"microalgae; added in the initial phase, <1 μM, greater than 1 μM, all four species",inhibitory effect on cell growth
O=C([O-])O.[Na+] [NaHCO3],Absorbance at harvest,Nannochloropsis oculata [8],2.373 ± 0.217
same,Dry weight,Nannochloropsis oculata [8],371 ± 117.8
same,Extract Weight,Nannochloropsis oculata [8],93.5 ± 34.0
"C[S+](C)[O-] [DMSO, dimethylsulfoxide]",increase in cell density,"Nannochloropsis oculata [1]; 0.4% DMSO, microplate screen",57%
same,increase in lipid levels,"Nannochloropsis oculata [1]; 0.4% DMSO, microplate screen",75%
same,effect on growth and cell density,"Nannochloropsis oculata [1]; >0.8% v/v DMSO, microplates",detrimental effect on growth and cell density
same,increase in lipid levels relative to control without DMSO,"Nannochloropsis oculata [8]; 1.0% DMSO, batch cultures",78%
same,effect on growth and lipid levels,Nannochloropsis oculata [8]; 500 mL batch culture,increased growth and lipid levels
same,increase in lipid levels,Nannochloropsis oculata [8]; [12],39%
same,Absorbance at harvest,"Nannochloropsis oculata [8]; N. oculata, DMSO (0.4%), n=3",1.776 ± 0.060
same,Dry weight,"Nannochloropsis oculata [8]; N. oculata, DMSO (0.4%), n=3",409.2 ± 105.6
same,Extract Weight,"Nannochloropsis oculata [8]; N. oculata, DMSO (0.4%), n=3",67.2 ± 7.8
same,Absorbance at harvest,"Nannochloropsis oculata [8]; N. oculata, DMSO (1%), n=2",1.827 ± 0.288
same,Dry weight,"Nannochloropsis oculata [8]; N. oculata, DMSO (1%), n=2",280.4 ± 88.0
same,Extract Weight,"Nannochloropsis oculata [8]; N. oculata, DMSO (1%), n=2",47.2 ± 11.0
same,Absorbance at harvest,Nannochloropsis oculata [8]; [13],1.83
same,Dry weight,Nannochloropsis oculata [8]; [13],283.27 mg
same,Extract Weight,Nannochloropsis oculata [8]; [13],56.83 mg
same,Number of Cells,Nannochloropsis oculata [8]; [13],2.32E+09
same,Recovered Weight,Nannochloropsis oculata [8]; [13],267.27 mg
same,effect on growth and lipid levels,[5]; 500 mL batch culture,"No significant changes; also recorded: decrease in growth and lipid production; also recorded: no effect, or a small decrease in growth and lipid production"
same,effect on growth and cell density,"Nannochloropsis salina [6]; >0.8% v/v DMSO, microplates",detrimental effect on growth and cell density
same,effect on growth and lipid levels,Nannochloris sp. [3]; 500 mL batch culture,"No significant changes; also recorded: no effect, or a small decrease in growth and lipid production"
same,SFAs (%),Nannochloropsis oculata [7]; 1%,7%
same,MUFAs (%),Nannochloropsis oculata [7]; 1%,32%
same,n3 PUFAs (%),Nannochloropsis oculata [7]; 1%,17%
same,PUFAs (%),Nannochloropsis oculata [7]; 1%,61%
same,Absorbance at harvest,Nannochloropsis salina [9]; [14],1.50 ± 0.13
same,Dry weight,Nannochloropsis salina [9]; [14],429.90 ± 109.74 mg
same,Extract Weight,Nannochloropsis salina [9]; [14],92.83 ± 6.37 mg
same,Number of Cells,Nannochloropsis salina [9]; [14],1.44E+09
same,Recovered Weight,Nannochloropsis salina [9]; [14],393.17 ± 112.84 mg
same,effect on growth and lipid levels,Nannochloropsis salina [9]; 500 mL batch culture,increased growth and lipid levels
same,increase in lipid levels,Nannochloropsis salina [9]; [12],25%
same,increase in lipid levels,"Nannochloropsis salina [9]; DMSO, batch culture (Table 18)",up to 50%
same,effect on growth (deviation from control growth),microalgae; 0.4% v/v DMSO,≤ 10%
same,effect on growth,"microalgae; less than 0.4% v/v DMSO, microplates, any of the four microalgae strains",did not show a toxic or detrimental effect on the growth
same,effect on growth,microalgae; ≧1% v/v DMSO,detrimental growth effects
"OCC(O)CO [Glycerol, propane-1,2,3-triol]",SFAs (% of total lipids),Nannochloropsis oculata [7]; 11 mM,39 % of total lipids
same,n3 PUFAs (% of UFAs),Nannochloropsis oculata [7]; 11 mM,16 % of UFAs
same,All other PUFAs and MUFAs (% of UFAs),Nannochloropsis oculata [7]; 11 mM,84 % of UFAs
same,UFAs (% of total lipids),Nannochloropsis oculata [7]; 11 mM,61 % of total lipids
same,SFAs (%),Nannochloropsis oculata [7]; 1 g/L,30%
same,MUFAs (%),Nannochloropsis oculata [7]; 1 g/L,33%
same,n3 PUFAs (%),Nannochloropsis oculata [7]; 1 g/L,10%
same,PUFAs (%),Nannochloropsis oculata [7]; 1 g/L,38%
